Measured values published in patent US9556437B2, “FAT1 gene in cancer and inflammation” (DEPARTMENT OF BIOTECHNOLOGY (DBT), priority 2012, dated 2017).

Test system: AP-1 transcriptional activity
Test: AP-1 luciferase assay
Assay type: cell-based, human
Details: U87MGsiFAT1 vs U87siControl, p<0.01
Experimental: AP-1 and COX-2 Promoter Luciferase Assay: U87MG cells (40000 cells/well) were plated in 6-well plates in triplicate on day zero. On day 1, cells were transfected with siFAT1 and siControl. On day 2 cells were transiently transfected with 4×AP-1-luciferase reporter plasmids as described previously. Cells were transfected with 1 μg of AP-17× luciferase reporter plasmid, along with 50 ng of pRL-TK (Renilla luciferase) control plasmid using LIPOFECTAMINE2000 as the transfection reagent. After 48 hrs, the cells were lysed by 1× passive-lysis-buffer (Promega, Madison, Wis., USA) and assayed for luciferase activity as previously described. For COX-2 luciferase assay U87MG cells were transfected with siFAT1 and siControl on day 1 and after 4 hrs incubation were treated with 10 μM SR11302. On day2 cells were transiently transfected with COX-2 reporter plasmid and again treated with 10 μM SR11302. After 48 hrs, the cells were assayed for luciferase activity.

Substance: siFAT1: FAT1 specific siRNA (Invitrogen), FAT Stealth RNAi siRNA-I (HSS103567), used for further experiments (sense CCCAACACACCUGUGGUCAUGGUAA; antisense UUACCAUGACCACAGGUGUGUUGGG; Stealth modification, chemistry not fully specified; listed as Homo sapiens)
- reduction in AP-1 luciferase activity: 2 fold
